ChEMBL document CHEMBL4616720 (J Med Chem, 2020)
Active and inactive are the calls of the source. The calls are words filed in the database; no cut-off is given here.

Assays:
[1] = AUC (0 to infinity) in Sprague-Dawley rat at 20 mg/kg, po measured up to 24 hrs by LC-MS/MS analysis; assay type: ADME, organism-based; design: dose 20 mg/kg, route oral, time infinity; conditions: in vivo
[2] = system: SJSA-1; assay: Antiproliferative activity against human SJSA1 cells assessed as reduction in cell growth measured after 48 hrs by CCK8 assay; assay type: functional, cell-based; conditions: SJSA-1, 48 h
[3] = biological target: T1, Peptide deformylase, mitochondrial (Homo sapiens) (UniProt Q9HBH1); assay: Inhibition of PDF in human MCF7 cells assessed as decrease in mtDNA encoded COX1 protein level measured after 48 hrs by Western blot analysis; assay type: cell-based
T1 sequence (whole entry): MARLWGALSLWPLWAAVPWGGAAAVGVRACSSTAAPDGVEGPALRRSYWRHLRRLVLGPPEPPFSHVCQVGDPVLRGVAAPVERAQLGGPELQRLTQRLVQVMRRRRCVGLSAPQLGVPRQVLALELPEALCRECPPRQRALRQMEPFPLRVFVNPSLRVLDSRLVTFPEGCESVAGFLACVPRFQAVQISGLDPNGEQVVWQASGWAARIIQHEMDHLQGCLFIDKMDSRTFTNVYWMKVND

[4] = Selectivity index, ratio of IC50 for human MCF10A cells assessed as reduction in cell growth measured after 48 hrs by CCK8 assay to IC50 for human HCT116 cells assessed as reduction in cell growth measured after 48 hrs by CCK8; assay type: toxicity; conditions: MCF10A cells versus HCT116 cells, read-out: Ratio IC50
[5] = system: HCT-116; assay: Antitumor activity against human HCT116 cells xenografted in ip dosed BALB/c nude mouse assessed as tumor growth inhibition administered every 3 days for 21 days and measured every second day for 21 days during compound dosing by digital caliper method; assay type: functional, organism-based
[6] = system: HCT-116; assay: Antitumor activity against human HCT116 cells xenografted in BALB/c nude mouse assessed as tumor growth inhibition at 50 mg/kg, ip administered every 3 days for 21 days and measured every second day for 21 days during compound dosing by digital caliper method relative to control; assay type: functional; conditions: HCT-116, ip, read-out: TGI
[7] = Selectivity index, ratio of IC50 for human MCF10A cells assessed as reduction in cell growth measured after 48 hrs by CCK8 assay to IC50 for human A549 cells assessed as reduction in cell growth measured after 48 hrs by CCK8; assay type: toxicity; conditions: MCF10A cells versus A549 cells, read-out: Ratio IC50
[8] = system: A549; assay: Induction of apoptosis in human A549 cells assessed as early apoptotic cells at 40 uM measured after 24 hrs by Annexin V-FITC/propidium iodide staining based FACSClibur flow cytometry analysis (reference value: 0.35 %); assay type: functional
[9] = system: A549; assay: Induction of apoptosis in human A549 cells assessed as necrotic cells at 40 uM measured after 24 hrs by Annexin V-FITC/propidium iodide staining based FACSClibur flow cytometry analysis (reference value: 0.37 %); assay type: functional
[10] = Terminal half life in Sprague-Dawley rat at 2 mg/kg, iv measured up to 24 hrs by LC-MS/MS analysis; assay type: ADME, organism-based; conditions: in vivo, read-out: beta t1/2 (converted)
[11] = Toxicity in BALB/c nude mouse xenografted with human HCT116 cells assessed as adverse effect at 25 to 50 mg/kg, ip administered every 3 days for 21 days; assay type: organism-based, HCT-116; conditions: in vivo
[12] = biological target: T2, Protein deacetylase HDAC6 (Homo sapiens) (UniProt Q9UBN7); assay: Inhibition of HDAC6 (unknown origin) at 10 uM using Boc-Lys(Ac)-pNA as substrate preincubated for 20 mins followed by substrate addition and further incubated for 90 mins by fluorescence assay relative to control
T2 sequence (whole entry): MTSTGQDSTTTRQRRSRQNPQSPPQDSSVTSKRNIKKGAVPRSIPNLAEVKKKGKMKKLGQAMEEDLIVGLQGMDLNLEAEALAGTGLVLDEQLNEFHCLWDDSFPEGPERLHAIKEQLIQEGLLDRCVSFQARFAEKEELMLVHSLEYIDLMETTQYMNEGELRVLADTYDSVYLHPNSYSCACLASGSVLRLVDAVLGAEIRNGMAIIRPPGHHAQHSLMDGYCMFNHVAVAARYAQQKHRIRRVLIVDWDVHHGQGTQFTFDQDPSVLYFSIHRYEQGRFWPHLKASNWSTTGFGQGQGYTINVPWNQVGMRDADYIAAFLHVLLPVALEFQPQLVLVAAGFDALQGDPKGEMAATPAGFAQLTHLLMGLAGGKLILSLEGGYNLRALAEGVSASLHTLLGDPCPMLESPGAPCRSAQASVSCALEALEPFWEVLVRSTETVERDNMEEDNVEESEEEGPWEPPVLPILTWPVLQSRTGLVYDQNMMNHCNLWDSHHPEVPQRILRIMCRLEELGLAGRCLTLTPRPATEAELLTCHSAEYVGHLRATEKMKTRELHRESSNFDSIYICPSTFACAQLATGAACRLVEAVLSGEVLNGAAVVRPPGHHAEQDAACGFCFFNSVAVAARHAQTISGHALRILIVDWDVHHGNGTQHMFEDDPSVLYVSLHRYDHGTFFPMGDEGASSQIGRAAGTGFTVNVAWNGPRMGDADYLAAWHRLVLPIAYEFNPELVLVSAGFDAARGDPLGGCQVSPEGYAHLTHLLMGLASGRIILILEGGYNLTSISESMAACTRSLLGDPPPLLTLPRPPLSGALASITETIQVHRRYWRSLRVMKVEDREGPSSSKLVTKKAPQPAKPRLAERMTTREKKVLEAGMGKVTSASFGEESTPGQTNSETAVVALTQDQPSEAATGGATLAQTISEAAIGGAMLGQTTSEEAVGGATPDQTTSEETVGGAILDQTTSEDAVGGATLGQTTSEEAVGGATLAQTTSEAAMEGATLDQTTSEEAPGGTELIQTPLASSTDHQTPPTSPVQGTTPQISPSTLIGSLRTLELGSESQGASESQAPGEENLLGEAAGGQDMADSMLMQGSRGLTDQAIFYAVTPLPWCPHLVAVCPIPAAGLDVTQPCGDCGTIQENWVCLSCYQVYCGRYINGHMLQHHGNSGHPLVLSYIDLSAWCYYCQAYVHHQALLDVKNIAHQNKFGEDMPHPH

[13] = system: A549; assay: Antiproliferative activity against human A549 cells assessed as reduction in cell growth measured after 48 hrs by CCK8 assay; assay type: functional, cell-based; conditions: A549, 48 h
[14] = Apparent volume of distribution at steady state in Sprague-Dawley rat at 2 mg/kg, iv measured up to 24 hrs by LC-MS/MS analysis; assay type: ADME, organism-based; conditions: in vivo, read-out: Vdss(app)
[15] = system: A549; assay: Induction of apoptosis in human A549 cells assessed as induction of caspase-3 activation at 40 uM using Ac-DEVD-pNA as substrate preincubated for 24 hrs followed by substrate addition and measured after 2 hrs by microplate reader assay; assay type: functional, cell-based
[16] = Clearance in Sprague-Dawley rat at 2 mg/kg, iv measured up to 24 hrs by LC-MS/MS analysis; assay type: ADME, organism-based; conditions: in vivo
[17] = system: HCT-116; assay: Antiproliferative activity against human HCT116 cells assessed as reduction in cell growth measured after 48 hrs by CCK8 assay; assay type: functional, cell-based; conditions: HCT-116, 48 h

In the case of O=C(C[C@@H](CC1CCCC1)C(=O)N1CC2(CC2)C[C@H]1c1nc(-c2ccc(F)cc2C(F)(F)F)no1)NO, the AUC [1] is reported as 940 ng·h/mL, the IC50 [2] is reported as 1940 nM and the inhibition [3] is reported as “Dose-dependent effect”. For the same molecule, the selectivity ratio at 48 h [4] was 9, the TGI [5] was “Dose-dependent effect” and the inhibition in vivo at 50 mg/kg [6] was 72.5%. It also gave a selectivity ratio at 48 h [7] of 9, an Activity [8] of 4.03% and an Activity [9] of 1.12%. For the same molecule, the half-life [10] was 3.7 h, the Activity [11] was “Non-Toxic” and the inhibition [12] was 0.41%. The IC50 [13] was 2580 nM, the Vd [14] was 5.26 L/kg and the Activity [15] was “inactive”. For the same molecule, the CL [16] was 444.7 mL/min/kg and the IC50 [17] was 1980 nM.
